From patent US6673354B2, “Compositions and methods for treating papillomavirus-infected cells” (priority 1998, dated 2004)
Where no end group is shown, it is not given here.

Tests used:
[1] = test system: in vitro HPV16 DNA replication; test: In vitro replication of HPV16 DNA (293 cell extract, EE-E1, HPV16 E2); format: biochemical; details: 40 ng EE-E1 and 6 ng HPV16 E2, FIG. 7
Procedure: In vitro replication reactions. In vitro replication reactions were essentially as described by Kuo et al. (18) in 25 μl reactions at 37° C. for indicated times. Standard reactions were for 2 hours, and were terminated by addition of 200 μl stop solution (20 mM Tris-HCl pH 7.5, 10 mM EDTA, 0.1% SDS, and 20 μg/ml RNase A). After incubation at 37° C. for 15 minutes, proteinase K was added (200 μg/ml) and incubation was continued 30 minutes. Samples were extracted with 250 μl phenol/chloroform/isoamyl alcohol (25:24:1), ethanol precipitated, washed with 70% ethanol, dried, resuspended in 20-30μl TE, and analyzed on a 0.8% agarose gel (TAE). The agarose gel was dried onto Hybond N+ membrane (Amersham), and replicated DNA was visualized by autoradiography. Bands were quantitated by Phosphorimager analysis. Replication templates were pKS7838-7905 (nt7838-7905/1-130) containing the HPV16 replication origin, and pUC7874-99 containing the HPV11 origin of replication (nt7874-7933/1-99). pUC7874-99 was a generously provided by Dr. Louise Chow.
We sought to establish a system for the study of HPV16 DNA replication in vitro, and to determine whether specific interaction between HPV16 E1 and E2 was required for HPV16 DNA replication in this system. […] As has been documented for other papillomavirus E1 proteins, some replication was observed using relatively large amounts of E1 in the absence of E2 (lanes 2 through 7) (6, 16, 22, 33, 40, 48). […] Replication in this assay is ori-dependent, since the small amount of replication of the pKS plasmid lacking the HPV16 origin detected at high concentrations of EE-E1 (FIG. 3B, lanes 1-6) was not stimulated by E2 (FIG. 1B, lanes 7-12).
Since the E2N-WP23 and E2N-WP 15 peptides could inhibit interaction between […] E1 and E2, their ability to inhibit in vitro HPV16 DNA replication was also tested (FIGS. 7A and 7B).

[2] = molecular target: T1, interaction between HPV16 E1 and E2 (Human papillomavirus type 16, UniProt P03114); test: In vitro HPV E1-E2 binding assay (co-immunoprecipitation / Western blot), HPV16 E1 and HPV16 E2; details: increasing peptide concentrations, FIG. 6A
T1 construct: made in house; host or cells: Hi-Five insect cells infected with recombinant baculovirus (pVL1392); nuclear extracts
T1 sequence (P03114 whole entry, looked up): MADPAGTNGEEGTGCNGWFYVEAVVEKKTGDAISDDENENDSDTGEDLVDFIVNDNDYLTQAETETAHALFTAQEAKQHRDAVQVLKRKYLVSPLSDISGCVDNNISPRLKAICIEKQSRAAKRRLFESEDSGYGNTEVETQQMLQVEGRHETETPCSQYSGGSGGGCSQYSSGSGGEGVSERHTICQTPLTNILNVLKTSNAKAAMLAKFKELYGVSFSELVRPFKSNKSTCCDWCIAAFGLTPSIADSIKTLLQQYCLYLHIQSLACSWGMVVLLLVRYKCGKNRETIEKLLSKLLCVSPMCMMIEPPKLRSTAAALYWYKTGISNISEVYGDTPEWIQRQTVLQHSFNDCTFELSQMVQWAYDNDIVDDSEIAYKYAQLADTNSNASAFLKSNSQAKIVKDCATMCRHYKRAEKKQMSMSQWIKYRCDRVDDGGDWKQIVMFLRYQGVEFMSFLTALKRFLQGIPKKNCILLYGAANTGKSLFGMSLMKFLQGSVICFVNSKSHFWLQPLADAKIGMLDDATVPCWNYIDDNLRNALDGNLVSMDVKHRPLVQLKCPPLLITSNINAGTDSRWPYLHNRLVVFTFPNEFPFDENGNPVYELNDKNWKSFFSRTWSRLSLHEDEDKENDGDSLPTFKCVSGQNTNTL
Procedure: (§1) In vitro HPV E1-E2 binding assay. 300-500 ng protein from HPV16 or HPV11 EE-E1 expressing recombinant baculovirus infected cell nuclear extracts and 80-120 ng from HPV E2 baculovirus infected cell nuclear extracts were incubated in 500 μl NET-gel buffer (50 mM Tris-HCl pH7.5, 150 mM NaCl, 0.1% NP-40, 1 mM EDTA, 0.25% gelatin) at 4° C. for one hour. 1-2 μg anti-EE monoclonal antibody was added and incubated with shaking at 4° C. for one hour. Immune complexes were precipitated with protein-G agarose beads and washed twice for 30 minutes with ice cold NET-gel buffer. Precipitated proteins were detected by Western blot using appropriate primary antibodies and anti-rabbit IgG HRP or anti-mouse IgG HRP (Amersham). Membranes were blocked for one hour in TNET (10 mM Tris 7.5, 2.5 mM EDTA, 50 mM NaCl, 0.1% Tween-20) containing 4% (w/v) dry milk. Washes and antibody reactions were carried out in TNET, and proteins were visualized by chemiluminescence (Reneaissance ECL, NEN) and autoradiography. Bands were quantitated using the NIH image program.
(§2) Therefore, we reasoned that a peptide encompassing this domain of HPV16 E2 might inhibit interaction between HPV16 E1 and E2, thereby inhibiting HPV16 DNA replication (FIG. 5). In order to test this possibility, HPV16 E2 and epitope tagged full length HPV16 E1 (EE16-E1) proteins were expressed separately using baculovirus vectors. EE-E1 and associated E2 proteins were immunoprecipitated using an anti-EE epitope monoclonal antibody. Precipitated E2 was detected by Western blot using polyclonal antiserum raised to the DNA binding domain of HPV16 E2 (35). As shown in lane 2 of FIG. 6A, E2 co-immunoprecipitated with EE16-E1, but was not precipitated by the EE epitope antibody in the absence of EE16-E1 (lane 1). Peptides encompassing HPV16 E2 amino acids 29-51 (E2N-WP23) or residues 33-47 (E2N-WP15) of HPV16 E2 were then tested for inhibition of E1-E2 interaction. These peptide sequences were derived from the sequence of HPV16 E2, and were based on an alignment of amino terminal residues that are conserved among the papillomavirus E2 proteins (FIG. 5). […] Both the HPV16 E2 protein itself and the E2 derived peptides act specifically in these assays, since the E39A replication defective HPV16 E2 mutant bound only slightly to EE16-E1 (lanes 14). […] These peptides are named E2N-MP23 and E2N-MP15, respectively (see FIG. 5). […] We have previously shown that a domain spanning amino acids 421-647 of the HPV16 E1 carboxy terminus is necessary and sufficient for E2 interaction (45).

HPV-16 E1-E2 interaction = molecular target: T2, HPV-16 E1-E2 interaction (Human papillomavirus type 16, UniProt P03114); test: In vitro HPV E1-E2 competition binding assay (HPV-16 EE-E1C and HPV-16 E2); details: 10 μM, 20 μM, and 40 μM peptide, FIG. 14
T2 construct: The carboxy terminus of HPV16-E1, from amino acid 424 to 649, is the minimal domain; made in house; host or cells: E2: nuclear extract of baculovirus-infected Hi-Five cells
T2 sequence (P03114 whole entry, looked up): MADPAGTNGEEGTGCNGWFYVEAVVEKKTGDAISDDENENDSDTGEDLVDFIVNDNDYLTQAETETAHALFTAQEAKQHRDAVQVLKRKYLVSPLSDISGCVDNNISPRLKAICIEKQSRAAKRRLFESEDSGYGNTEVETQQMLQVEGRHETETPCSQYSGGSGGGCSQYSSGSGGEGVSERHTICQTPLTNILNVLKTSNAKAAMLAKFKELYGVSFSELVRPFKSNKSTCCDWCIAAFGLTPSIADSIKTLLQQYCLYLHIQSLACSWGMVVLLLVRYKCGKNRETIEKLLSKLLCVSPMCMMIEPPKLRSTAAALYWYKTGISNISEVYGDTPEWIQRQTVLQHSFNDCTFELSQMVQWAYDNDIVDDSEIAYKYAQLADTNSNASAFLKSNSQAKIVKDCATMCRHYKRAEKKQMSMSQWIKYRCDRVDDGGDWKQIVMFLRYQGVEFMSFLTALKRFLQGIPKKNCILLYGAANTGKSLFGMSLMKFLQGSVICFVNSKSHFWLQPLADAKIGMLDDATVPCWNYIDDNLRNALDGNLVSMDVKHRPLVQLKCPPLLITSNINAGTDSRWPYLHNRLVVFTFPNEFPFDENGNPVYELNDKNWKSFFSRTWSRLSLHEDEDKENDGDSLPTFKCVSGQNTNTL
Procedure: Use of EE-EIC. The carboxy terminus of HPV16-E1, from amino acid 424 to 649, is the minimal domain necessary for interaction with E2 (Yasugi et al. 1997). An epitope tagged form of this domain (EE-EIC) was used in the E1-E2 interaction assays presented here.
In vitro HPV EI-E2 competition binding assay. HPV-16 EE-EIC (240 ng) in 500 1 NET gel buffer (50 mM Tris-HCI [pH 7.5 ], 150 mM NaCl, 0.1% NP-40, 1 mM EDTA, 0.25% gelatin) were pre-incubated with 0 μM, 10 μM, 20 μM, or 40 μM peptide for 10 minutes on ice. The final concentration of DMSO, the peptide solvent, was kept constant in all samples. Nuclear extract containing HPV-16 E2 was then added, and the mixture was incubated with shaking at 4° C. for 1 hour. Anti-EE monoclonal antibody (1 mg/ml) (BAbCo) was added, and the mixture was incubated with shaking for 30 minutes. Immune complexes were precipitated with protein G-agarose beads for an additional 30 minutes at 4° C. The beads were washed with 500 l ice-cold NET-gel buffer three times.

[3] = molecular target: T3, interaction between HPV16 E1 and E2 (Human papillomavirus type 16, UniProt P03114); test: In vitro HPV E1-E2 binding assay (co-immunoprecipitation / Western blot), HPV16 E1 and HPV16 E2
T3 construct: made in house; host or cells: Hi-Five insect cells infected with recombinant baculovirus (pVL1392); nuclear extracts
Procedure: as §1, §2

Substance	inhibition of in vitro HPV16 DNA replication [1]	inhibition of HPV16 E1-E2 interaction [2]	inhibition of HPV-16 E1-E2 interaction (E1-E2 complex formation) (HPV-16 E1-E2 interaction)	inhibition of HPV16 E1-E2 interaction ([3]; increasing peptide concentrations, FIG. 6A)	mode of inhibition of E1-E2 interaction ([3]; inhibition plotted as a function of substrate concentration (data not shown))
E2N-MP23: 23-mer peptide of HPV16 E2 aa 29-51 containing alanine at the position analogous to E39 (HIDYWKHMRLACAIYYKAREMGF; UniProt P03120 29-51, looked up, variant E39A)	wild type peptides inhibited replication much more effectively than the respective E39A substituted analog	did not inhibit E1-E2 interaction at concentrations at which the wild type peptide could do so			
GRKKRRQRRRPPQCGGWKHMRLECAIYYKAR (cysteine pairing not given here) [Tat-WP]			not inhibited		
ERQIKIWFQNRRMKWKKGGWKHMRLECAIYYKAR [Ant-WP]			comparable to that of wild-type peptide		
HIDYWKHMRLECAIYYKAREMGF [E2N-WP23]	could effectively inhibit in vitro replication			inhibitory effects	competitive inhibition
